A short description of the data set: Microsomal metabolic stability. The class given is in vitro ADME. Conditions: 30 minutes at 37°C, rat microsomes. As to the method: Metabolic stability was conducted using pooled microsomes from non-induced male Sprague-Dawley rats. J-147 was incubated for 30 minutes at 37°C at concentrations of 1 μM. Subsequent HPLC analysis using a Waters Alliance 2795 in combination with a Waters Quattro Premier mass spectrometer measured disappearance of the parent molecule. The compounds were run on a Waters X-BridgeC18 (186003021) 50 × 2.1 mm column with 3.5 micron particle packing at a flow rate of 1 ml/min and with the temperature maintained at 50°C. Solvent A was water with 0.1% formic acid. Solvent B was acetonitrile with 0.07% formic acid. The data for 3 replicates are expressed as percent of parent remaining.

For `Cc1ncc2n1-c1ccc(Cl)cc1C(c1ccccc1F)=NC2` [Midazolam, reference compound], where the note is “1 μM”, the “Metabolism Ranking” value was “High (<45=high)”. In addition, the amount remaining at 0.5 h, 1 μM (male, Sprague-Dawley, pooled microsomes from non-induced rats, percent of parent remaining) fell in the range of 0 to 3%.

For the origin of these results see article PMC4215638, “J-147 a Novel Hydrazide Lead Compound to Treat Neurodegeneration: CeeTox™ Safety and Genotoxicity Analysis” (Journal of neurology & neurophysiology, 2013).
